Experimental data reported in ChEMBL document CHEMBL3526144 (Drug Metab Dispos, 2011).

Columns and labels:
[1] = Inhibition of CYP3A4.1 (unknown origin)-mediated testosterone 6beta-hydroxylation incubated for 10 mins prior to NADPH addition measured after 20 mins by HPLC-UV analysis
[2] = Inhibition of CYP3A4.2 (unknown origin)-mediated testosterone 6beta-hydroxylation incubated for 10 mins prior to NADPH addition measured after 20 mins by HPLC-UV analysis
[3] = Inhibition of CYP3A4.7 (unknown origin)-mediated testosterone 6beta-hydroxylation incubated for 10 mins prior to NADPH addition measured after 20 mins by HPLC-UV analysis
[4] = Inhibition of CYP3A4.16 (unknown origin)-mediated testosterone 6beta-hydroxylation incubated for 10 mins prior to NADPH addition measured after 20 mins by HPLC-UV analysis
[5] = Inhibition of CYP3A4.18 (unknown origin)-mediated testosterone 6beta-hydroxylation incubated for 10 mins prior to NADPH addition measured after 20 mins by HPLC-UV analysis
[6] = tested on: CYP3A4.7 and CYP3A4.1; assay: Ratio of Ki for CYP3A4.7 (unknown origin) to Ki for CYP3A4.1 (unknown origin); type: ADME; conditions: human
[7] = tested on: CYP3A4.16 and CYP3A4.1; assay: Ratio of Ki for CYP3A4.16 (unknown origin) to Ki for CYP3A4.1 (unknown origin); conditions: human
[8] = tested on: CYP3A4.2 and CYP3A4.1; assay: Ratio of Ki for CYP3A4.2 (unknown origin) to Ki for CYP3A4.1 (unknown origin); type: ADME; conditions: human

CCC(C)n1ncn(-c2ccc(N3CCN(c4ccc(OCC5COC(Cn6cncn6)(c6ccc(Cl)cc6Cl)O5)cc4)CC3)cc2)c1=O (stereo not drawn) [ITRACONAZOLE]
Ki [1]: 0.076 µM | Ki [2]: 0.045 µM | Ki [3]: 0.179 µM | Ki [4]: 0.041 µM | Ki [5]: 0.082 µM | selectivity ratio [6]: 2.4 | selectivity ratio [7]: 0.54 | selectivity ratio [8]: 0.59
